Columns and labels:
Male Wistar rats = assay: Evaluation of urine sugar excretion action in rats (Test Example 1); assay type: in vivo; settings: 100 mg/kg p.o. in olive oil, urine collected 24 hours, per individual per day
Description: Male Wistar rats aged 5 weeks (purchased from Charles River Japan, Inc.) were acclimatized in metabolic cages for one week, for use at this experiment. The test compounds suspended in olive oil were prepared into a 20 mg/ml solution to a dose of 5 ml per 1 kg rat body weight.
After the rats were starved for 4 hours, the test compounds were orally given at 100 mg/kg to the rats at 11 am. Immediately after dosing until 24 hours later, urine was collected. The volume of urine was measured. Then, urine sugar concentration was assayed by glucose oxidase method, to calculate the glucose excretion into urine per individual per day.

[1] = test system: Renal brush border membrane; assay: Assessment of inhibitory action of glucose uptake, 14C-D-glucose (Test Example 1A); assay type: biochemical, rat; settings: incubation 37 °C 30 minutes, 14C-D-glucose one minute
Description: Test compounds were dissolved in 100 mM mannitol-10 mM HEPES/Tris, pH 7.4 to prepare solutions at various concentrations.
Renal brush border membrane was prepared from a rat kidney, to which a solution of a test compound was added for incubation at 37 °C for 30 minutes. Then, ^14C-D-glucose was added for incubation for one minute. A solution containing 1 mM phlorizin was used to terminate the glucose uptake reaction. The radioactivity ^14C of ^14C-D-glucose incorporated in the renal brush border membrane was counted with a liquid scintillation counter. The glucose uptake independent on sodium was reduced from the glucose uptake in a control group or a test group, to calculate the inhibition intensity.

glucose-loaded mice = assay: Blood glucose time course after oral glucose loading in KK mice (Example II); assay type: in vivo; settings: glucose 1 g/kg p.o.; for increase of blood glucose / hyperglycemia 30 minutes after glucose loading: metformin 200 mg/kg or inhibitor A 30 mg/kg p.o.; for pattern of glycemic suppression at elevated dose: metformin 300 mg/kg or inhibitor A 45 mg/kg p.o., vs lower dose (Fig. 3)
Description: KK mice (age of 25 weeks; male) fed with a commercially available high-calories feed for breeding (CMF; Oriental Yeast) were divided into groups with matched body weights. After starvation for 17 hours, glucose was orally given at 1 g/kg. Immediately thereafter, the inhibitor A of renal glucose reabsorption (30 mg/kg or 45 mg/kg) or metformin (200 mg/kg or 300 mg/kg) was orally given. Additionally, a group given with the inhibitor A of renal glucose reabsorption (30 mg/kg) and metformin (200 mg/kg) was prepared. A vehicle was orally given to a control group after glucose dosing.
Blood glucose level was assayed in a time course.

[2] = test system: Type 2 diabetic model GK rats; assay: Blood glucose after repeated once daily dosing in GK rats (Example III); assay type: in vivo; settings: once daily p.o., day 25, glibenclamide 3 mg/kg, inhibitor A 30 mg/kg, or both, vs vehicle-dosed group (Fig. 4)
Description: These agents were orally given once daily at the same time period as in the group administered with a single one agent. Only a vehicle was given orally to a control group. On day 25 after the start of administration, blood glucose was assayed sequentially, to compare the groups in terms of the resulting blood glucose levels.

glucose-loaded rats = assay: Blood glucose time course after oral glucose loading in rats (Example I); assay type: in vivo; settings: Wistar rats, glucose 1 g/kg p.o.
Description: Wistar rats (age of 7 weeks; male) were divided into groups with matched body weights. After 17-hour starvation, glucose was orally given at 1 g/kg to the animals. Immediately after the administration, the inhibitor A of renal glucose reabsorption or the inhibitor B of renal glucose reabsorption (A at 30 mg/kg or 60 mg/kg; B at 30 mg/kg or 80 mg/kg) or glibenclamide (1 mg/kg or 2 mg/kg) or nateglinide (50 mg/kg or 80 mg/kg) was orally given. Additionally, a group on the combined use of both of an inhibitor of renal glucose reabsorption and a hypoglycemic agent was also prepared. A vehicle was orally given to a control group after glucose administration.
Blood glucose was measured in a time course.

[3] = test system: Type 2 diabetes model Zucker diabetic fatty rats; assay: Insulin content in pancreas after repeated dosing in Zucker diabetic fatty rats, ELISA (Example V); assay type: in vivo; settings: twice daily p.o., day 39, starved 18 hours, inhibitor A 30 mg/kg, metformin 200 mg/kg, or both, ELISA of pancreas homogenates (Fig. 5)
Description: The agents were orally given twice daily at the same time period as in the case of the groups administered with a single one of these agents. Only a vehicle was orally given twice daily to the animals in a control group. On day 39 from the start of administration, the animals were starved for 18 hours. Then, pancreas was resected from the animals, for the assay of insulin in pancreas homogenates by ELISA, to compare the groups in terms of insulin content in pancreas.

[4] = inhibitor A 30 mg/kg p.o., vs control group (Fig. 3)
[5] = glibenclamide 1 mg/kg, inhibitor A 30 mg/kg, or both, p.o., vs vehicle group (Fig. 1)

SMILES: CCc1ccc(Cc2c(O[C@@H]3O[C@H](COC(=O)OC)[C@@H](O)[C@H](O)[C@H]3O)nn(C3CCC3)c2C(F)(F)F)cc1 [Compound of Production Example 2, 1'-cyclobutyl-4'-[(4-ethylphenyl)methyl]-5'-trifluoromethyl-1H-pyrazole-3'-o-(6-carbomethoxy)-β-D-glucopyranoside]
- Urine sugar excretion (Male Wistar rats): 656 mg

SMILES: CCc1ccc(Cc2c(O[C@@H]3O[C@H](C(=O)O)[C@@H](O)[C@H](O)[C@H]3O)n[nH]c2C(F)(F)F)cc1 [Compound of Production Example 2-A, 4-((4-ethylphenyl)methyl)-5-(trifluoromethyl)-1H-pyrazol-3-yl-β-D-glucopyranoside uronic acid]
- Inhibition intensity (concentration of test compound) ([1]; 100 µM test compound): 30 % (100 µM)

SMILES: CSc1ccc(Cc2c(O[C@@H]3O[C@H](CO)[C@@H](O)[C@H](O)[C@H]3O)n[nH]c2C(F)(F)F)cc1 [Compound of Production Example 1-A, 4-((4-methylthiophenyl)methyl)-5-(trifluoromethyl)-1H-pyrazole-3-o-β-D-glucopyranoside]
- Inhibition intensity (concentration of test compound) ([1]; 10 µM test compound): 84 % (10 µM)

SMILES: CCc1ccc(Cc2c(O[C@@H]3O[C@H](CO)[C@@H](O)[C@H](O)[C@H]3O)nn(C3CCC3)c2C(F)(F)F)cc1 [1'-cyclobutyl-4'-[(4-ethylphenyl)methyl]-5'-trifluoromethyl-1H-pyrazole-3'-o-β-D-glucopyranoside]
- blood glucose level 2 hours later and thereafter (glucose-loaded mice; [4]): could not suppress the blood glucose level
- hyperglycemia 60 minutes after glucose loading (glucose-loaded mice; [4]): could suppress hyperglycemia
- increase of blood glucose / hyperglycemia 30 minutes after glucose loading (glucose-loaded mice; vs control group (Fig. 3)): could suppress hyperglycemia
- pattern of glycemic suppression at elevated dose (glucose-loaded mice): did not change
- blood glucose level [2]: significantly lowered
- blood glucose level 120 minutes after glucose loading and thereafter (glucose-loaded rats; [5]): did not lower the blood glucose level 120 minutes after glucose loading and thereafter as greatly as glibenclamide did
- hyperglycemia / blood glucose level immediately after glucose loading (30 minutes) (glucose-loaded rats; [5]): suppressed hyperglycemia
- pattern of glycemic suppression at increased dose (glucose-loaded rats; glibenclamide 2 mg/kg or inhibitor A 60 mg/kg p.o., vs lower dose (Fig. 1)): did not change
- insulin content in pancreas [3]: no difference was observed

SMILES: CN(C)C(=N)N=C(N)N [metformin]
- increase of blood glucose / hyperglycemia 30 minutes after glucose loading (glucose-loaded mice; vs control group (Fig. 3)): did not suppress the increase of blood glucose
- increase of blood glucose 60 minutes later and thereafter (glucose-loaded mice; metformin 200 mg/kg p.o. (Fig. 3)): suppressed the increase
- pattern of glycemic suppression at elevated dose (glucose-loaded mice): did not change
- insulin content in pancreas [3]: no difference was observed

SMILES: CCc1ccc(Cc2c(O[C@@H]3O[C@H](COC(=O)OC)[C@@H](O)[C@H](O)[C@H]3O)nn(C3CCCC3)c2C(F)(F)F)cc1 [Compound of Production Example 4, 1'-cyclopentyl-4'-[(4-ethylphenyl)methyl]-5'-trifluoromethyl-1H-pyrazole-3'-o-(6-carbomethoxy)-β-D-glucopyranoside]
- Urine sugar excretion (Male Wistar rats): 452 mg
